Source: paper PMC4774911, “Biochemical Screening of Five Protein Kinases from Plasmodium falciparum against 14,000 Cell-Active Compounds” (PLoS ONE, 2016)
Several values for one entry are separate records, joined by “and”; a condition that tells them apart may be missing. Identical values can stand only once.

Columns and labels:
Experiment in all cases: biochemical
Parameters in all cases: endogenous in cells; host or cells: K562 cell extract; species or system K562 (extract); replicate k of n = 2 (each experiment ID is one independent experiment; two experiment IDs per compound)
Conditions in all cases: read-out: KDapp
ITK = biological target: T1, ITK (Homo sapiens, UniProt Q08881)
T1 sequence (Q08881 1-620): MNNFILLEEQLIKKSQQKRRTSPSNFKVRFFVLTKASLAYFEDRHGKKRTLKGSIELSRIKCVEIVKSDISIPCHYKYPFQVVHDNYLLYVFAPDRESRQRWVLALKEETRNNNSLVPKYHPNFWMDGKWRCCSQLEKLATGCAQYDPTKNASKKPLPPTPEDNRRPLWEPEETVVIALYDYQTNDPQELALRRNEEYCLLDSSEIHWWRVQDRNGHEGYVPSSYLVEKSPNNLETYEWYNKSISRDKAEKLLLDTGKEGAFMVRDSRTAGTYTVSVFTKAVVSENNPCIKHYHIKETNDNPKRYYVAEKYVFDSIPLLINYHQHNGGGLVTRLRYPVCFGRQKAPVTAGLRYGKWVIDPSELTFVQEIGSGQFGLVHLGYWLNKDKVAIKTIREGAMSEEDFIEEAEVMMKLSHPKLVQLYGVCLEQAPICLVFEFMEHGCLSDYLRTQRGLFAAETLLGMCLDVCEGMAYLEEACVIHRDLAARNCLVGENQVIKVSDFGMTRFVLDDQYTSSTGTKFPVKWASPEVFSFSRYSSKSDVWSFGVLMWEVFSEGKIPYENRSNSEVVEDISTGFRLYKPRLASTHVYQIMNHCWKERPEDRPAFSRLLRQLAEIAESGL

MAP3K3 = biological target: T2, MAP3K3 (Homo sapiens, UniProt Q99759)
T2 sequence (Q99759 1-626): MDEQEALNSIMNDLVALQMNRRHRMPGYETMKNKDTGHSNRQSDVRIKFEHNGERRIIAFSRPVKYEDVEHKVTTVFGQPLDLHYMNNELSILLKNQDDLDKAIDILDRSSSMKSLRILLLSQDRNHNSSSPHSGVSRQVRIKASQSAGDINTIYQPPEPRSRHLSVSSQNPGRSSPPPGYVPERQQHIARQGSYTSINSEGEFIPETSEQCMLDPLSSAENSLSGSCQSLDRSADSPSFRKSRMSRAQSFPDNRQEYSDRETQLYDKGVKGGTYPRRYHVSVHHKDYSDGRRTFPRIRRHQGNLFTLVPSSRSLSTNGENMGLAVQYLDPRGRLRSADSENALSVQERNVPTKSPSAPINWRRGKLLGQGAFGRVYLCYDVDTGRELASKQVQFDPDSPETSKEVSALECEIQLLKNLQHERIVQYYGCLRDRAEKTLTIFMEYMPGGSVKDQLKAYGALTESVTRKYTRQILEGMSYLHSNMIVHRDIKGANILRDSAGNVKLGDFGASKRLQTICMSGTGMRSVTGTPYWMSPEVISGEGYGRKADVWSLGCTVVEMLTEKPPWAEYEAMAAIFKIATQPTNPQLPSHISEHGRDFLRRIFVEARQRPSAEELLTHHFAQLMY

NEK1 = biological target: T3, NEK1 (Homo sapiens, UniProt Q96PY6)
T3 sequence (Q96PY6 1-1258): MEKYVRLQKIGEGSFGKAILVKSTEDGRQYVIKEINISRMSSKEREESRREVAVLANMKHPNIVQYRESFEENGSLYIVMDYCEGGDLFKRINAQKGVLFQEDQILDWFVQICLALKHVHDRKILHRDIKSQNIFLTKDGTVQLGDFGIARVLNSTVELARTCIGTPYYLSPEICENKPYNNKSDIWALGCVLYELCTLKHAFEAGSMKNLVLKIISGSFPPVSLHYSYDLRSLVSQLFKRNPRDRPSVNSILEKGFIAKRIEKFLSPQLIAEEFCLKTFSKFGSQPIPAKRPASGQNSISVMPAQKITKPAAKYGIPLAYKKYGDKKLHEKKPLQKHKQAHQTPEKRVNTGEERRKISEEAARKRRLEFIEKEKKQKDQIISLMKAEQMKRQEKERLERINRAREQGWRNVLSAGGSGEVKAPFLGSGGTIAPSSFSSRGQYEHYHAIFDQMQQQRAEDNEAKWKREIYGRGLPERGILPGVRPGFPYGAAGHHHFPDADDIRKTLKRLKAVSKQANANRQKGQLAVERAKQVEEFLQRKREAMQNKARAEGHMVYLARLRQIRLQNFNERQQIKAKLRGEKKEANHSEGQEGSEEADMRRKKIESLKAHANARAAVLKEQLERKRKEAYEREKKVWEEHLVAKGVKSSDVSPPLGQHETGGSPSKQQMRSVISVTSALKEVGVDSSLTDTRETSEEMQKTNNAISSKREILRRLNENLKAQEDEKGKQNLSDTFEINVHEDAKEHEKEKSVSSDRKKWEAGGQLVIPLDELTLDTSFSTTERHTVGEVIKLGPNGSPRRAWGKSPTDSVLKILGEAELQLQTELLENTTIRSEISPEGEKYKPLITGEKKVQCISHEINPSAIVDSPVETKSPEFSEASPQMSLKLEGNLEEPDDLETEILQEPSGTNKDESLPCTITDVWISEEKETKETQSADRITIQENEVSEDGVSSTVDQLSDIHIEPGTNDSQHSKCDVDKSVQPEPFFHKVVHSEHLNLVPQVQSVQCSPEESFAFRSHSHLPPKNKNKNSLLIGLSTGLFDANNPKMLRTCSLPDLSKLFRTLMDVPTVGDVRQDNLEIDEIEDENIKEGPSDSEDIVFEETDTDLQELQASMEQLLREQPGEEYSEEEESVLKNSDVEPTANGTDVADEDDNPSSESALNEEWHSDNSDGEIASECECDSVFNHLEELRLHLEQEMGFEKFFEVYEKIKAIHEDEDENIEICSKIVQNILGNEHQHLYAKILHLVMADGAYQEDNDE

BRAF = BRAF (Homo sapiens, UniProt P15056)
BRAF, sequence (P15056 whole entry): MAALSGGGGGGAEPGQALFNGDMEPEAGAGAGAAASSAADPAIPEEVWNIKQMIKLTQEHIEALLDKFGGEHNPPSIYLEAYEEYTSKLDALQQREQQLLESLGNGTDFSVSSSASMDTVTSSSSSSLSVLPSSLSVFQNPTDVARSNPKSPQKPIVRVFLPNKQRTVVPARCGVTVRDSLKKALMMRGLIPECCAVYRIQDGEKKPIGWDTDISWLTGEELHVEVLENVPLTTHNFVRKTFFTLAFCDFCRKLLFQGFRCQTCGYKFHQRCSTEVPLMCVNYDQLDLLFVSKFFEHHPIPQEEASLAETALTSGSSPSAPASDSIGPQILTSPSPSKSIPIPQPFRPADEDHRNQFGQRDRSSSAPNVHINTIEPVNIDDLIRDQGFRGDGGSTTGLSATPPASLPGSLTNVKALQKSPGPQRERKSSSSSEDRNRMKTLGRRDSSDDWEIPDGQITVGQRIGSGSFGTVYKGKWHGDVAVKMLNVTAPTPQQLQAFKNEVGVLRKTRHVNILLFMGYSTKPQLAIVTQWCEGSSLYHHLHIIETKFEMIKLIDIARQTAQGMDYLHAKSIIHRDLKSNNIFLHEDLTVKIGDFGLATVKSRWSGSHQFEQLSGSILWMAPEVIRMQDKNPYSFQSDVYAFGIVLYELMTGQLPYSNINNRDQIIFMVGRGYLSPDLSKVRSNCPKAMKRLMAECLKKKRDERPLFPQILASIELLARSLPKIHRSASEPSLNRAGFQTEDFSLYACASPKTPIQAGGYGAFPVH

CN(C)CC(O)COc1ccc(Nc2ncc([N+](=O)[O-])c(Nc3ccccc3O)n2)cc1.O=C(O)C(F)(F)F (centres unmarked) [TCMDC-141399]
Kd (ITK): 470 nM | Kd (MAP3K3): 3400 nM | Kd (NEK1): 4540 nM

Cl.NCC1(c2nc(-c3ccc(Cl)c(O)c3)c(-c3ccncc3)[nH]2)CCCCC1 [TCMDC-141154]
Kd (BRAF): 861 nM and 705 nM

CN1CCN(c2ccc(Nc3ncc(C#N)c(Nc4ccccc4C(N)=O)n3)cc2)CC1.Cl [TCMDC-134116]
Kd (BRAF): 1570 nM | Kd (ITK): 38.7 nM | Kd (MAP3K3): 176 nM | Kd (NEK1): 404 nM and 333 nM
